Results reported in publication PMC12373846, “Hemoglobin as a pseudoperoxidase and drug target for oxidative stress-related diseases” (Signal Transduction and Targeted Therapy, 2025).
Like-named read-outs stand apart in the source and are kept apart here.

How the values were obtained:
HRP [1] = molecular target: T1, HRP (Armoracia rusticana, UniProt P00433); assay: ROS-Glo H2O2 assay with HRP; type: biochemical, horseradish; conditions: for fold change in H2O2 decomposition by HRP: 30-min window, Fig. 2b
T1 sequence (P00433 31-353): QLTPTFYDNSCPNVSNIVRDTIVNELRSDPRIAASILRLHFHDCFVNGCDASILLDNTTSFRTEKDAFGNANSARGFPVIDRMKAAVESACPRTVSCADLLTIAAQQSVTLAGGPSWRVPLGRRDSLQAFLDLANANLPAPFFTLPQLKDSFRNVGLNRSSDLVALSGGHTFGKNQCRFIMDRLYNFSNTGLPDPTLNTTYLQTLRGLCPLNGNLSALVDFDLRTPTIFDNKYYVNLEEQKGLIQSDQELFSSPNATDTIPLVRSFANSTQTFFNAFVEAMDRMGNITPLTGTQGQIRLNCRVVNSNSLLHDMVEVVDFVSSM
Method: Hb (Sigma‒Aldrich, H7379), H2O2 (Sigma‒Aldrich, H1009), and Amplex Red reagents (Invitrogen, A12222) were obtained for the study. A 4 μM H2O2 solution was prepared in 50 mM sodium phosphate buffer (pH 7.2). Then, 49 μl of this mixture was mixed with 1 μl of the test compound in DMSO or distilled water. The mixture was combined with an assay mixture of Amplex Red reagent (20 mM stock to 0.1 mM) and HRP (200 U/ml stock to 0.2 U/ml) and added to the wells at 50 μl/well. After a 60-min incubation at 37 °C, resorufin production was quantified via a microplate fluorescence reader (SpectraMax iD5, Molecular Devices) at ex/em = 535/580 nm. […] For the ROS-Glo assay, the H2O2 substrate solution and ROS-Glo detection solution were prepared according to the manufacturer’s instructions. 10 μM H2O2 and drugs were prepared as in the Amplex Red assay, with HRP, Hb, CAT, or GPx added as needed. The mixture was added to the wells at 100 μl/well and incubated for 60 min at 37 °C. H2O2 substrate solution was added, and the mixture was incubated at room temperature for 30 min. After the H2O2 substrate solution was added and incubated at room temperature for 30 min, the ROS-Glo detection solution was added, and the mixture was incubated for 15 min. Luminescence was measured via iD5 microplate readers. […] The U/ml was calculated on the basis of the amount of H2O2 reduced by Hb during the reaction, using μg/ml and U/mg.
To evaluate the extent of peroxidase function facilitation by HTPEB (1 μM) and KDS12025 (1 μM) in HRP (0.2 U/ml) and Hb (10 μg/ml), we used the ROS-Glo assay over 30 and 60 min. The fold change was calculated by dividing the delta values during the 30-min reaction for the vehicle over drug conditions.

GPx = GPx colorimetric assay; type: biochemical; conditions: standard GPx assay
Method: To assess the GPx activity, the reaction was prepared in a 96-well plate by adding glutathione reductase and glutathione solution, GPx enzyme (5µl, final concentration 60 U/ml), and the drug (1 µl of KDS12025 and HTEPB) to a total volume of 100 µl per well, followed by manufactural protocol (Abcam, ab102530). The plate was incubated at room temperature for 15 min to allow pre-reactions and drug interactions to occur. Following the incubation, the reaction was initiated by adding cumene hydroperoxide as the substrate to each well. The absorbance at 340 nm was measured in kinetic mode for 10–20 min, and the rate of NADPH consumption was used to calculate GPx activity, reflecting the enzyme’s ability to reduce the hydroperoxide substrate in the presence of the test compound.

[2] = DPPH radical scavenging assay; conditions: Fig. S1e
Method: In a 96-well microplate, samples (20 μl) at concentrations ranging from 0.1 to 100 μM were mixed with 80 μL of 50 mM sodium phosphate buffer (pH 7.2) and 100 μL of DPPH (1,1-diphenyl-2-picrylhydrazyl) solution (250 μM in methanol) and incubated for 30-min in the dark. Each sample was quantified using a microplate fluorescence reader (SpectraMax iD5, Molecular Devices) at absorbance (517 nm). Edaravone was used as a positive control. The radical scavenging activity was estimated using the following equation: sample absorbance / control absorbance ×100. The dose-response curve, EC50 for the DPPH, was calculated and determined by fitting data with GraphPad Prism software. The fitting method had no special handling of outliers.

[3] = Solubility in aqueous solutions (statement); type: physicochemical
Hb = molecular target: T2, Hb (Homo sapiens, UniProt P68871); assay: Bubbling liberation (oxygen release) with Hb; type: biochemical; conditions: Hb + H2O2, Fig. 2g
T2 construct: purchased Sigma-Aldrich H7379
T2 sequence (P68871 2-147 limits assumed): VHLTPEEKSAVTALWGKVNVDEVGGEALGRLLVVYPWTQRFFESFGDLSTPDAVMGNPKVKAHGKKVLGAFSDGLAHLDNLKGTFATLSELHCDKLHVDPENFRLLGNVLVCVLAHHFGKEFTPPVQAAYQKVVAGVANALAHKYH
T2 sequence (P69905 2-142 partner limits assumed): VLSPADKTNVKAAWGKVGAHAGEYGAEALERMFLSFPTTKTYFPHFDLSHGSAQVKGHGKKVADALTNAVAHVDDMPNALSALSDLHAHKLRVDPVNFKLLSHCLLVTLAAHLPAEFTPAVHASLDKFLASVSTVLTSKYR
Method: (§1) The effects of bubbling with DMSO, HTPEB, and KDS12025 were evaluated. To measure the degree of bubbling quantitatively, the reactions were conducted in sealed tubes connected to an inverted cylinder submerged in a water bath to record the time and volume of the bubbles produced. […] Vehicle, HTPEB, and KDS12025 were added to assess their effects. A similar procedure was followed for Hb.

HRP [4] = molecular target: T1, HRP; assay: Bubbling liberation (oxygen release) with HRP; type: biochemical, horseradish; conditions: HRP + H2O2, Fig. 2g
Method: as §1

PAMPA BBB permeability = type: in vitro ADME; conditions: for Papp at 4 h, 50 μM: PAMPA, pH 7.4, 50 μM
Method: A parallel artificial membrane permeability assay (PAMPA)^70 was performed to validate the blood-brain barrier permeability of KDS12025. The procedure began by preparing a donor solution of the compound in a pH 7.4 donor buffer. This solution was added to the wells of a deep well plate, followed by the addition of a high-sensitivity UV plate filled with donor buffer to serve as the blank sample. An initial sample for the UV plate was taken to establish a baseline reading. The PAMPA sandwich was then assembled by adding the donor plate mixture to the donor plate well, followed by placing a BBB-lipid coated membrane on top and an acceptor plate filled with acceptor buffer. This setup was incubated at 25 °C for a specific duration to allow diffusion. Post-incubation, a sample from the acceptor plate was taken, and the UV absorbance was measured to determine the permeated amount of the test compound. The permeability was then calculated using the PAMPA explorer program, considering the initial donor concentration and the acceptor's concentration after incubation.

CAT = assay: Bubbling liberation (oxygen release) with CAT; type: biochemical; conditions: CAT + H2O2, Fig. 2g
Method: as §1

GiD mice = assay: Novel place recognition test, GiD mice; type: in vivo, mouse; conditions: GiD+KDS12025 0.1mpk ad libitum, Fig. S11e
[5] = read-out: BCS code: permeability classification

EC50 (HRP [1]; Fig. 1e, read-out: EC50, ROS-Glo assay with replenishing HRP) [µM]	tau value, reaction time-response of HRP with HTPEB (HRP [1]; Fig. S1b) [min]	Pe (PAMPA BBB permeability) (PAMPA BBB permeability; 50 μM, 4 h, U.V)	SMILES	fold change in H2O2 decomposition by HRP (HRP [1])	effect on GPx activity (GPx)	IC50 [2] [µM]	solubility in water / aqueous solutions [3]	bubbles per 1 × 1 mm^2 area (Hb)	bubbles per 1 × 1 mm^2 area (HRP [4])	BCS code: CNS +/- classification (PAMPA BBB permeability; 50 μM, 4 h)	Papp at 4 h, 50 μM (PAMPA BBB permeability; [5]) [×10⁻⁶ cm/s]	bubbles per 1 × 1 mm^2 area (CAT)	NPR discrimination index (GiD mice)	Papp at 4 h, 50 μM (PAMPA BBB permeability; U.V, read-out: Pe (PAMPA BBB permeability)) [×10⁻⁶ cm/s]
2.5	8.57	3.56 10^-6cm/sec	O=C(O)c1cc(NCCc2ccc(C(F)(F)F)cc2)ccc1O [HTPEB, 2-hydroxy-5-[2-(4-trifluoromethyl-phenyl)-ethylamino]-benzoic acid, reference compound]	3.769±0.7911	no enhancement	19.2	poor	12.5±3.969	9.0±1.0	- (< 10)	> 0.4	84.5±9.957	–	–
–	–	–	CNc1ccc(NCCc2ccccc2OC)cc1.Cl [KDS12025, N^1-(2-methoxyphenethyl)-N^4-methylbenzene-1,4-diamine hydrochloride salt]	5.642±0.5747	did not affect other peroxidases	155	highly water soluble	13.5±2.533	7.3±0.947	+ (> 10)	> 0.4	92.0±6.622	WT (0.2256±0.0275, n=3), GiD (-0.02438±0.07989, n=3), GiD+KDS12025 (0.1mpk) (0.2255±0.02347, n=4) One-way ANOVA with Tukey's multiple comparisons test, F(2,7) = 9.285, p = 0.01 WT vs. GiD, p = 0.02; WT vs. GiD+KDS12025 (0.1mpk), p > 0.99; GiD vs. GiD+KDS12025 (0.1mpk), p = 0.01	67.4
